Patent US4791118A, “Quinolonecarboxylic acid derivatives and their preparation” (Kyorin Pharmaceutical Co., Ltd., priority 1985, dated 1988)
In brackets after ≈: the same amount, converted by molar mass. Read-outs that look alike come from different tables or passages of the source.

Legend:
[1] = test system: Eubacterium limosum KYA 8486; experiment: MIC, anaerobic bacteria; conditions: KYA8486
[2] = test system: Alcaligenes faecalis 0114002; experiment: MIC, aerobic bacteria
S. pneumoniae 4288 = experiment: MIC, clinical isolates; assay type: cell-based; conditions: Streptococcus pneumoniae; clinical isolate S. pneumoniae 4288; 10^6 cells/ml
S. agalactiae 4470 = experiment: MIC, clinical isolates; assay type: cell-based; conditions: Streptococcus agalactiae; clinical isolate S. agalactiae 4470; 10^6 cells/ml
S. pneumoniae 17 = experiment: MIC, clinical isolates; assay type: cell-based; conditions: Streptococcus pneumoniae; clinical isolate S. pneumoniae 17; 10^6 cells/ml
[3] = test system: Staphylococcus aureus 209 P; experiment: microbe, parasite or virus in culture
S. pneumoniae 3727 = experiment: MIC, clinical isolates; assay type: cell-based; conditions: Streptococcus pneumoniae; clinical isolate S. pneumoniae 3727; 10^6 cells/ml
S. marcescens GN 7577 = experiment: MIC, aerobic bacteria; assay type: cell-based; conditions: Serratia marcescens, GN7577, Gram -, 10^6 cells/ml
S. pyogenes 3130 = experiment: MIC, clinical isolates; assay type: cell-based; conditions: Streptococcus pyogenes; clinical isolate S. pyogenes 3130; 10^6 cells/ml
E. faecalis IID 682 = experiment: MIC, aerobic bacteria; assay type: cell-based; conditions: Enterococcus faecalis, IID682, Gram +, 10^6 cells/ml
C. perfringens KYA 13123 = experiment: microbe, parasite or virus in culture; assay type: cell-based; conditions: Clostridium perfringens, KYA13123
S. pyogenes 3131 = experiment: MIC, clinical isolates; assay type: cell-based; conditions: Streptococcus pyogenes; clinical isolate S. pyogenes 3131; 10^6 cells/ml
S. pneumoniae 2950 = experiment: MIC, clinical isolates; assay type: cell-based; conditions: Streptococcus pneumoniae; clinical isolate S. pneumoniae 2950; 10^6 cells/ml
S. pneumoniae IID 552 = experiment: MIC, aerobic bacteria; assay type: cell-based; conditions: Streptococcus pneumoniae, IID552, Gram +, 10^6 cells/ml
[4] = test system: Pseudomonas aeruginosa V-1; experiment: MIC, aerobic bacteria; conditions: V1
S. agalactiae 4468 = experiment: MIC, clinical isolates; assay type: cell-based; conditions: Streptococcus agalactiae; clinical isolate S. agalactiae 4468; 10^6 cells/ml
S. pneumoniae 15 = experiment: MIC, clinical isolates; assay type: cell-based; conditions: Streptococcus pneumoniae; clinical isolate S. pneumoniae 15; 10^6 cells/ml
[5] = test system: Peptostreptococcus anaerobius KYA 27337; experiment: MIC, anaerobic bacteria; assay type: cell-based; conditions: KYA27337, Gram +, 10^6 cells/ml
F. varium KYA 8501 = experiment: microbe, parasite or virus in culture; conditions: Fusobacterium varium, KYA8501
[6] = test system: Bacillus subtilis PCI 219; experiment: microbe, parasite or virus in culture; conditions: PCI219
[7] = test system: Yersinia enterocolitica IID 981; experiment: microbe, parasite or virus in culture; conditions: IID981
P. aeruginosa IID 1210 = experiment: MIC, aerobic bacteria; assay type: cell-based; conditions: Pseudomonas aeruginosa, IID1210, Gram -, 10^6 cells/ml
B. distasonis 8503 = experiment: MIC, anaerobic bacteria; assay type: cell-based; conditions: Parabacteroides distasonis, Gram -, 10^6 cells/ml
From the text: (§1) | Organism (10^6 cells/ml)

[8] = test system: Veillonella parvula KYA 10790; experiment: MIC, anaerobic bacteria; assay type: cell-based; conditions: KYA10790, Gram -, 10^6 cells/ml
From the text: as §1

Pst. micros UPI 5464-1 = experiment: MIC, anaerobic bacteria; assay type: cell-based; conditions: Parvimonas micra, UPI54641, Gram +, 10^6 cells/ml
From the text: as §1

B. fragilis 25285 = experiment: MIC, anaerobic bacteria; assay type: cell-based; conditions: Bacteroides fragilis, Gram -, 10^6 cells/ml
From the text: as §1

[9] = test system: Fusobacterium mortiferum 4249; experiment: MIC, anaerobic bacteria; assay type: cell-based; conditions: Gram -, 10^6 cells/ml
From the text: as §1

[10] = test system: Clostridium difficile I-E; experiment: MIC, anaerobic bacteria; assay type: cell-based; conditions: Clostridioides difficile, Gram +, 10^6 cells/ml
From the text: as §1

B. fragilis 0558 = experiment: MIC, anaerobic bacteria; assay type: cell-based; conditions: Bacteroides fragilis, Gram -, 10^6 cells/ml
From the text: as §1

[11] = test system: Peptococcus magnus KY 017; experiment: MIC, anaerobic bacteria; assay type: cell-based; conditions: Finegoldia magna, KY017, Gram +, 10^6 cells/ml
From the text: as §1

B. vulgatus KYA 29327 = experiment: MIC, anaerobic bacteria; assay type: cell-based; conditions: Phocaeicola vulgatus, KYA29327, Gram -, 10^6 cells/ml
From the text: as §1

[12] = test system: Bacteroides fragilis GM 7000; experiment: MIC, anaerobic bacteria; assay type: cell-based; conditions: GM7000, Gram -, 10^6 cells/ml
From the text: as §1

F. nucleatum = experiment: MIC, anaerobic bacteria; assay type: cell-based; conditions: Fusobacterium nucleatum, Gram -, 10^6 cells/ml
From the text: as §1

Shigella sonnei IID 969 = experiment: microbe, parasite or virus in culture; conditions: IID969
S. pyogenes 3107 = experiment: MIC, clinical isolates; assay type: cell-based; conditions: Streptococcus pyogenes; clinical isolate S. pyogenes 3107; 10^6 cells/ml
E. faecalis 401 = experiment: MIC, clinical isolates; assay type: cell-based; conditions: Enterococcus faecalis; clinical isolate E. faecalis 401; 10^6 cells/ml
[13] = test system: Propionibacterium acens 11828; experiment: MIC, anaerobic bacteria; assay type: cell-based
P. cepacia GIFU 518 = experiment: microbe, parasite or virus in culture; conditions: Burkholderia cepacia, GIFU518

| SMILES | MIC [1] | MIC [2] | MIC (S. pneumoniae 4288) | MIC (S. agalactiae 4470) | MIC (S. pneumoniae 17) | MIC [3] | MIC (S. pneumoniae 3727) | MIC (S. marcescens GN 7577) | MIC (S. pyogenes 3130) | MIC (E. faecalis IID 682) | MIC (C. perfringens KYA 13123) | MIC (S. pyogenes 3131) | MIC (S. pneumoniae 2950) | MIC (S. pneumoniae IID 552) | MIC [4] | MIC (S. agalactiae 4468) | MIC (S. pneumoniae 15) | MIC [5] | MIC (F. varium KYA 8501) | MIC [6] | also measured |
| --- | --- | --- | --- | --- | --- | --- | --- | --- | --- | --- | --- | --- | --- | --- | --- | --- | --- | --- | --- | --- | --- |
| O=C(O)c1cn(C2CC2)c2c(F)c(N3CCC(CNCCF)C3)c(F)cc2c1=O (stereo not shown) [Exp. 2, 1-Cyclopropyl-7-[3-(2-fluoroethyl)aminomethyl-1-pyrrolidinyl]-6,8-difluoro-1,4-dihydro-4-oxo-3-quinolinecarboxylic acid] | 0.78 µg/mL (≈ 1.91 µM) | 0.39 µg/mL (≈ 0.953 µM) | 0.05 µg/mL (≈ 0.122 µM) | 0.05 µg/mL (≈ 0.122 µM) | 0.05 µg/mL (≈ 0.122 µM) | 0.0125 µg/mL (≈ 0.0305 µM) | 0.05 µg/mL (≈ 0.122 µM) | 1.56 µg/mL (≈ 3.81 µM) | 0.05 µg/mL (≈ 0.122 µM) | 0.1 µg/mL (≈ 0.244 µM) | 0.1 µg/mL (≈ 0.244 µM) | 0.05 µg/mL (≈ 0.122 µM) | 0.05 µg/mL (≈ 0.122 µM) | 0.05 µg/mL (≈ 0.122 µM) | 0.39 µg/mL (≈ 0.953 µM) | 0.05 µg/mL (≈ 0.122 µM) | 0.05 µg/mL (≈ 0.122 µM) | ≤ 0.05 µg/mL | 0.78 µg/mL (≈ 1.91 µM) | 0.0125 µg/mL (≈ 0.0305 µM) | MIC [7]: 0.1 µg/mL (≈ 0.244 µM); MIC (P. aeruginosa IID 1210): 1.56 µg/mL (≈ 3.81 µM); MIC (B. distasonis 8503): 0.78 µg/mL (≈ 1.91 µM); MIC [8]: 0.2 µg/mL (≈ 0.489 µM); MIC (Pst. micros UPI 5464-1): 0.2 µg/mL (≈ 0.489 µM); MIC (B. fragilis 25285): 0.39 µg/mL (≈ 0.953 µM); MIC [9]: 0.2 µg/mL (≈ 0.489 µM); MIC [10]: 0.78 µg/mL (≈ 1.91 µM); MIC (B. fragilis 0558): 0.39 µg/mL (≈ 0.953 µM); MIC [11]: ≤ 0.05 µg/mL; MIC (B. vulgatus KYA 29327): 0.39 µg/mL (≈ 0.953 µM); MIC [12]: 0.39 µg/mL (≈ 0.953 µM); MIC (F. nucleatum): 0.2 µg/mL (≈ 0.489 µM); MIC (Shigella sonnei IID 969): 0.0125 µg/mL (≈ 0.0305 µM); MIC (S. pyogenes 3107): 0.05 µg/mL (≈ 0.122 µM); MIC (E. faecalis 401): 0.1 µg/mL (≈ 0.244 µM); MIC ([13]; Propionibacterium acens 11828, anaerobic, Gram +, 10^6 cells/ml, read-out: MIC): 1.56 µg/mL (≈ 3.81 µM); MIC (P. cepacia GIFU 518): 0.78 µg/mL (≈ 1.91 µM) |
| O=C(O)c1cn(C2CC2)c2c(Cl)c(N3CCC(CNCCF)C3)c(F)cc2c1=O (stereo not shown) [Exp. 1, 8-Chloro-1-cyclopropyl-6-fluoro-7-[3-(2-fluoroethyl)aminomethyl-1-pyrrolidinyl]-1,4-dihydro-4-oxo-3-quinolinecarboxylic acid] | 0.39 µg/mL (≈ 0.916 µM) | 0.39 µg/mL (≈ 0.916 µM) | 0.025 µg/mL (≈ 0.0587 µM) | 0.025 µg/mL (≈ 0.0587 µM) | 0.025 µg/mL (≈ 0.0587 µM) | ≤ 0.0063 µg/mL | 0.025 µg/mL (≈ 0.0587 µM) | 1.56 µg/mL (≈ 3.66 µM) | 0.025 µg/mL (≈ 0.0587 µM) | 0.05 µg/mL (≈ 0.117 µM) | ≤ 0.05 µg/mL | 0.025 µg/mL (≈ 0.0587 µM) | 0.025 µg/mL (≈ 0.0587 µM) | 0.025 µg/mL (≈ 0.0587 µM) | 0.39 µg/mL (≈ 0.916 µM) | 0.025 µg/mL (≈ 0.0587 µM) | 0.025 µg/mL (≈ 0.0587 µM) | ≤ 0.05 µg/mL | 0.39 µg/mL (≈ 0.916 µM) | ≤ 0.0063 µg/mL | MIC [7]: 0.1 µg/mL (≈ 0.235 µM); MIC (P. aeruginosa IID 1210): 1.56 µg/mL (≈ 3.66 µM); MIC (B. distasonis 8503): 0.2 µg/mL (≈ 0.47 µM); MIC [8]: 0.1 µg/mL (≈ 0.235 µM); MIC (Pst. micros UPI 5464-1): 0.1 µg/mL (≈ 0.235 µM); MIC (B. fragilis 25285): ≤ 0.05 µg/mL; MIC [9]: ≤ 0.05 µg/mL; MIC [10]: 0.2 µg/mL (≈ 0.47 µM); MIC (B. fragilis 0558): ≤ 0.05 µg/mL; MIC [11]: ≤ 0.05 µg/mL; MIC (B. vulgatus KYA 29327): ≤ 0.05 µg/mL; MIC [12]: ≤ 0.05 µg/mL; MIC (F. nucleatum): ≤ 0.05 µg/mL; MIC (Shigella sonnei IID 969): 0.0125 µg/mL (≈ 0.0294 µM); MIC (S. pyogenes 3107): 0.025 µg/mL (≈ 0.0587 µM); MIC (E. faecalis 401): 0.05 µg/mL (≈ 0.117 µM); MIC ([13]; Propionibacterium, 11828): 0.78 µg/mL (≈ 1.83 µM); MIC (P. cepacia GIFU 518): 0.78 µg/mL (≈ 1.83 µM) |
